Columns and labels:
[1] = molecular target: Serine/threonine-protein kinase SIK1 (Homo sapiens) (UniProt P57059); conditions: Compound concentration 1000.0 nM
[2] = molecular target: B2 bradykinin receptor (Homo sapiens) (UniProt P30411); experiment: B2 (h) Eurofins-Cerep binding assay; set-up: ligand concentration 0.3 nM; conditions: filed as agonist, Compound concentration 10.0 uM
[3] = system: Receptor-type tyrosine-protein kinase FLT3 (Homo sapiens), P36888 [D835Y]; conditions: Compound concentration 1000.0 nM
[4] = molecular target: cGMP-dependent protein kinase 2 (Homo sapiens) (UniProt Q13237); conditions: Compound concentration 1000.0 nM
[5] = molecular target: Serine/threonine-protein kinase DCLK3 (Homo sapiens) (UniProt Q9C098); conditions: Compound concentration 1000.0 nM
[6] = molecular target: Vasopressin V1a receptor (Homo sapiens) (UniProt P37288); experiment: V1 a (h) Eurofins-Cerep binding assay; set-up: ligand concentration 0.3 nM; conditions: filed as agonist, Compound concentration 10.0 uM
[7] = molecular target: Phosphorylase b kinase gamma catalytic chain, skeletal muscle/heart isoform (Homo sapiens) (UniProt Q16816); conditions: Compound concentration 1000.0 nM
[8] = molecular target: Serine/threonine-protein kinase WNK2 (Homo sapiens) (UniProt Q9Y3S1); conditions: Compound concentration 1000.0 nM
[9] = molecular target: Homeodomain-interacting protein kinase 2 (Homo sapiens) (UniProt Q9H2X6); conditions: Compound concentration 1000.0 nM
[10] = system: Epidermal growth factor receptor (Homo sapiens), P00533 [UNDEFINED MUTATION]; conditions: Compound concentration 1000.0 nM
[11] = molecular target: Mitogen-activated protein kinase kinase kinase 13 (Homo sapiens) (UniProt O43283); conditions: Compound concentration 1000.0 nM
[12] = molecular target: Proto-oncogene tyrosine-protein kinase receptor Ret (Homo sapiens) (UniProt P07949); conditions: Compound concentration 1000.0 nM
[13] = molecular target: MAP kinase-interacting serine/threonine-protein kinase 2 (Homo sapiens) (UniProt Q9HBH9); conditions: Compound concentration 1000.0 nM
[14] = molecular target: Homeodomain-interacting protein kinase 4 (Homo sapiens) (UniProt Q8NE63); conditions: Compound concentration 1000.0 nM
[15] = molecular target: SRSF protein kinase 3 (Homo sapiens) (UniProt Q9UPE1); conditions: Compound concentration 1000.0 nM
[16] = system: Mast/stem cell growth factor receptor Kit (Homo sapiens), P10721 [D816V]; conditions: Compound concentration 1000.0 nM
[17] = molecular target: Casein kinase I isoform alpha (Homo sapiens) (UniProt P48729); conditions: Compound concentration 1000.0 nM
[18] = system: Receptor-type tyrosine-protein kinase FLT3 (Homo sapiens), P36888 [N841I]; conditions: Compound concentration 1000.0 nM
[19] = molecular target: Phosphatidylinositol 4,5-bisphosphate 3-kinase catalytic subunit alpha isoform (Homo sapiens) (UniProt P42336); conditions: Compound concentration 1000.0 nM
[20] = molecular target: cAMP-dependent protein kinase catalytic subunit PRKX (Homo sapiens) (UniProt P51817); conditions: Compound concentration 1000.0 nM
[21] = molecular target: Ephrin type-A receptor 3 (Homo sapiens) (UniProt P29320); conditions: Compound concentration 1000.0 nM
[22] = molecular target: Mitotic checkpoint serine/threonine-protein kinase BUB1 (Homo sapiens) (UniProt O43683); conditions: Compound concentration 1000.0 nM
[23] = molecular target: Microtubule-associated serine/threonine-protein kinase 1 (Homo sapiens) (UniProt Q9Y2H9); conditions: Compound concentration 1000.0 nM
[24] = molecular target: Ephrin type-B receptor 3 (Homo sapiens) (UniProt P54753); conditions: Compound concentration 1000.0 nM
[25] = molecular target: Dual specificity tyrosine-phosphorylation-regulated kinase 1B (Homo sapiens) (UniProt Q9Y463); conditions: Compound concentration 1000.0 nM
[26] = molecular target: Vascular endothelial growth factor receptor 1 (Homo sapiens) (UniProt P17948); conditions: Compound concentration 1000.0 nM
[27] = molecular target: Testis-specific serine/threonine-protein kinase 1 (Homo sapiens) (UniProt Q9BXA7); conditions: Compound concentration 1000.0 nM
[28] = molecular target: Phosphatidylinositol 4,5-bisphosphate 3-kinase catalytic subunit beta isoform (Homo sapiens) (UniProt P42338); conditions: Compound concentration 1000.0 nM
[29] = molecular target: Tyrosine-protein kinase receptor Tie-1 (Homo sapiens) (UniProt P35590); conditions: Compound concentration 1000.0 nM
[30] = system: Receptor-type tyrosine-protein kinase FLT3 (Homo sapiens), P36888 [UNDEFINED MUTATION]; conditions: Compound concentration 1000.0 nM
[31] = molecular target: Mitogen-activated protein kinase kinase kinase kinase 5 (Homo sapiens) (UniProt Q9Y4K4); conditions: Compound concentration 1000.0 nM
[32] = molecular target: Insulin receptor (Homo sapiens) (UniProt P06213); conditions: Compound concentration 1000.0 nM
[33] = molecular target: Neuropeptide Y receptor type 1 (Homo sapiens) (UniProt P25929); experiment: Y1 (h) Eurofins-Cerep binding assay; set-up: ligand concentration 0.025 nM; conditions: filed as agonist, Compound concentration 10.0 uM
[34] = molecular target: Mitogen-activated protein kinase 7 (Homo sapiens) (UniProt Q13164); conditions: Compound concentration 1000.0 nM
[35] = molecular target: Calcium/calmodulin-dependent protein kinase type 1B (Homo sapiens) (UniProt Q6P2M8); conditions: Compound concentration 1000.0 nM
[36] = molecular target: Serine/threonine-protein kinase OSR1 (Homo sapiens) (UniProt O95747); conditions: Compound concentration 1000.0 nM
[37] = molecular target: Muscarinic acetylcholine receptor M3 (Homo sapiens) (UniProt P20309); conditions: Compound concentration 10.0 uM
[38] = molecular target: Ankyrin repeat and protein kinase domain-containing protein 1 (Homo sapiens) (UniProt Q8NFD2); conditions: Compound concentration 1000.0 nM
[39] = molecular target: Phosphatidylinositol 4-phosphate 5-kinase type-1 gamma (Homo sapiens) (UniProt O60331); conditions: Compound concentration 1000.0 nM
[40] = molecular target: Cyclin-dependent kinase 19 (Homo sapiens) (UniProt Q9BWU1); conditions: Compound concentration 1000.0 nM
[41] = molecular target: Mitogen-activated protein kinase kinase kinase 5 (Homo sapiens) (UniProt Q99683); conditions: Compound concentration 1000.0 nM
[42] = molecular target: SNF-related serine/threonine-protein kinase (Homo sapiens) (UniProt Q9NRH2); conditions: Compound concentration 1000.0 nM
[43] = molecular target: Mitogen-activated protein kinase kinase kinase 14 (Homo sapiens) (UniProt Q99558); conditions: Compound concentration 1000.0 nM
[44] = molecular target: Death-associated protein kinase 3 (Homo sapiens) (UniProt O43293); conditions: Compound concentration 1000.0 nM

Chain of Serine/threonine-protein kinase DCLK3 (Homo sapiens) (Q9C098 whole entry): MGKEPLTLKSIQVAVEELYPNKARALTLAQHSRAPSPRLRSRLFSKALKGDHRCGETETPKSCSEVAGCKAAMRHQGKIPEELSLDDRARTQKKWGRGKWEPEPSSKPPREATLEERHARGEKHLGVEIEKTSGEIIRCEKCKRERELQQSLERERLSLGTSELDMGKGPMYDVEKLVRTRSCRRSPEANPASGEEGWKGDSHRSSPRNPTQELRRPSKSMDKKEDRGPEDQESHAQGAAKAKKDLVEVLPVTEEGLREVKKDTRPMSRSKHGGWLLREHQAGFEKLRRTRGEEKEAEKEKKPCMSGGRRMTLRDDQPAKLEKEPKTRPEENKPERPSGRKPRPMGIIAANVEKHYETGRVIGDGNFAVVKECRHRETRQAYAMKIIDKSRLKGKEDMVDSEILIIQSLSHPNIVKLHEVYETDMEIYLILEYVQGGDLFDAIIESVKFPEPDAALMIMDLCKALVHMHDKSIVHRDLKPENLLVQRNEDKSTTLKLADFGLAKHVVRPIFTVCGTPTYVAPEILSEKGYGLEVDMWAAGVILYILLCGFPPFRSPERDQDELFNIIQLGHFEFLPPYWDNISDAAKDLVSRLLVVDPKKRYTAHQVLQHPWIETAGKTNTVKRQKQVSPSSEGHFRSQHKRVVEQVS
Chain of MAP kinase-interacting serine/threonine-protein kinase 2 (Homo sapiens) (Q9HBH9 whole entry, looked up): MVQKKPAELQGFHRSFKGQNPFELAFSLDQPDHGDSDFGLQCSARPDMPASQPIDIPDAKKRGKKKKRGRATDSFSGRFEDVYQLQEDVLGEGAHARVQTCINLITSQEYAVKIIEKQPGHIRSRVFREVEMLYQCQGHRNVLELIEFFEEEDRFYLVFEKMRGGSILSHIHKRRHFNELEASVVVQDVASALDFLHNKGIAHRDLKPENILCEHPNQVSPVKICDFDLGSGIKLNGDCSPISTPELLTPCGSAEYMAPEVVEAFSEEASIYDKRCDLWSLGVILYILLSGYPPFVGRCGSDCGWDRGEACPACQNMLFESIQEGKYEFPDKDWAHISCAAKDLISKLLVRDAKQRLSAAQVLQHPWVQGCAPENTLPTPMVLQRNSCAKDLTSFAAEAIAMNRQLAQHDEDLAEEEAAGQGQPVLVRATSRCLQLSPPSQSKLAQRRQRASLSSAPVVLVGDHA
Chain of Microtubule-associated serine/threonine-protein kinase 1 (Homo sapiens) (Q9Y2H9 whole entry, looked up): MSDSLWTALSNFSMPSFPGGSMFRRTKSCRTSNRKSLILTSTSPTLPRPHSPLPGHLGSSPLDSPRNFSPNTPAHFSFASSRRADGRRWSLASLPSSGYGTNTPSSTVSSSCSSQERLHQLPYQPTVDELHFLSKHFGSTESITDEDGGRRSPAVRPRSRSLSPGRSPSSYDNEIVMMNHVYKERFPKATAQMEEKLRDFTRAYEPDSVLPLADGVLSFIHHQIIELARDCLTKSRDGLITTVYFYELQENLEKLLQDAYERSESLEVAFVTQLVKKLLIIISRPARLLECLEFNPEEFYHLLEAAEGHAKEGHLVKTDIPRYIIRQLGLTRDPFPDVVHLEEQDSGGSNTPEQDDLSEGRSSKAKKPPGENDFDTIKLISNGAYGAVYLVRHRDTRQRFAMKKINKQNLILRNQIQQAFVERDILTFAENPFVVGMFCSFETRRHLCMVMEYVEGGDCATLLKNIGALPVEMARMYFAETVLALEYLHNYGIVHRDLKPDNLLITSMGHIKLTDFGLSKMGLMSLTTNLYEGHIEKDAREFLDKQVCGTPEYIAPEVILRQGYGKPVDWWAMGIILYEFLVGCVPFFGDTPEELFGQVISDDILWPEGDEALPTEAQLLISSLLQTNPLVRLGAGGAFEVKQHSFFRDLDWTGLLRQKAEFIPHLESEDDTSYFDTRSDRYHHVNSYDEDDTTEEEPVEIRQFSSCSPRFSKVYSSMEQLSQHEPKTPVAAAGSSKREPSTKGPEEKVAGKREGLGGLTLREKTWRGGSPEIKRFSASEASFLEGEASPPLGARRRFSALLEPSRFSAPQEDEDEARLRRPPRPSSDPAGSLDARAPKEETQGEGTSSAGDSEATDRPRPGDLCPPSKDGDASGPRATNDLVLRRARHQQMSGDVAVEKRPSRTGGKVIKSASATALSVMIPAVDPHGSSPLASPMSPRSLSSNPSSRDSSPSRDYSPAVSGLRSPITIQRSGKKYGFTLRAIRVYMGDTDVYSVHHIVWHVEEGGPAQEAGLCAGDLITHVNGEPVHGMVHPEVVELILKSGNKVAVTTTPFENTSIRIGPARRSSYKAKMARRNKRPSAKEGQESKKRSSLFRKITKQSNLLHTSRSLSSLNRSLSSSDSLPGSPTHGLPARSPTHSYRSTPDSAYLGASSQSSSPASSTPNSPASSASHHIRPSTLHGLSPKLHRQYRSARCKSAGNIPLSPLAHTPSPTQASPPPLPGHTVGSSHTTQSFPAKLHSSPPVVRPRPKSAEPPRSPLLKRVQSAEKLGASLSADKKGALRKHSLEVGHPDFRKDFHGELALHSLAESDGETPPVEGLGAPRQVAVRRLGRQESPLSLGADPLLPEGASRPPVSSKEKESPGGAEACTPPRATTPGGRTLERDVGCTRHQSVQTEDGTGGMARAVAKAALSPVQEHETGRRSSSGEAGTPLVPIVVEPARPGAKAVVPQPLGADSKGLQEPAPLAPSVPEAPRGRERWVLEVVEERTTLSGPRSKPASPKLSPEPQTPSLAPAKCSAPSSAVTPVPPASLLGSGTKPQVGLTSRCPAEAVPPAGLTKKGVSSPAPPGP
Chain of Serine/threonine-protein kinase OSR1 (Homo sapiens) (O95747 2-527 limits assumed): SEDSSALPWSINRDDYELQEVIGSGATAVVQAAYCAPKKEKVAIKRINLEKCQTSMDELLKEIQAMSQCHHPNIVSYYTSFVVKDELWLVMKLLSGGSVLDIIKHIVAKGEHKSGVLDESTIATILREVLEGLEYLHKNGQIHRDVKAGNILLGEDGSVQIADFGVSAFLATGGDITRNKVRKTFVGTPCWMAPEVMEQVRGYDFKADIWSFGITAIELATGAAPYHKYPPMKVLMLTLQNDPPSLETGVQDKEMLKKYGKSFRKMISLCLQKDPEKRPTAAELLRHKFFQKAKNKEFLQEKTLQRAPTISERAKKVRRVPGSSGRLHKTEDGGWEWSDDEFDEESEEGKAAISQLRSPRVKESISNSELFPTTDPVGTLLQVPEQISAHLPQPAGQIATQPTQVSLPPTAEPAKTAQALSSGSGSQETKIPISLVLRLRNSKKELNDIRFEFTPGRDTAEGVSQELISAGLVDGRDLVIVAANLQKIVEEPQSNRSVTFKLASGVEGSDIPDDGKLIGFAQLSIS
Chain of Phosphatidylinositol 4-phosphate 5-kinase type-1 gamma (Homo sapiens) (O60331 whole entry): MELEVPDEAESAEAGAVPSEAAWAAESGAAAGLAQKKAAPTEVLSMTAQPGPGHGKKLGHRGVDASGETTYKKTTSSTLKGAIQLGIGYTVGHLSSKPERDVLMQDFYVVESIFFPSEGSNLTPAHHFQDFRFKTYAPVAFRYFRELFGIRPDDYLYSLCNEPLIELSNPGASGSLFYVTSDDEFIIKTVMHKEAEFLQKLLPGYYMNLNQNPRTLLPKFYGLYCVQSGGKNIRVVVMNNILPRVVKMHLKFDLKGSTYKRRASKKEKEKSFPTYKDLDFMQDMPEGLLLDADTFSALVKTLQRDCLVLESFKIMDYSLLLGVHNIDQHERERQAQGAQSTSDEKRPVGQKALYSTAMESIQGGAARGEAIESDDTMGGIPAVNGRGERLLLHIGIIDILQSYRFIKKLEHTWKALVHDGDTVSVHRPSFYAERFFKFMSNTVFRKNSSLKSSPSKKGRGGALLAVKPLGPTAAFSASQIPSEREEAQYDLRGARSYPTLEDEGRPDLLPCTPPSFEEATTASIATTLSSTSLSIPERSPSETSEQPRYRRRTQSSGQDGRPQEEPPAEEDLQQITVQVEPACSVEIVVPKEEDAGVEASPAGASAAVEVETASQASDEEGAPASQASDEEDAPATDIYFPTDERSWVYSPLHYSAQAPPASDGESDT
Chain of Homeodomain-interacting protein kinase 2 (Homo sapiens) (Q9H2X6 whole entry, looked up): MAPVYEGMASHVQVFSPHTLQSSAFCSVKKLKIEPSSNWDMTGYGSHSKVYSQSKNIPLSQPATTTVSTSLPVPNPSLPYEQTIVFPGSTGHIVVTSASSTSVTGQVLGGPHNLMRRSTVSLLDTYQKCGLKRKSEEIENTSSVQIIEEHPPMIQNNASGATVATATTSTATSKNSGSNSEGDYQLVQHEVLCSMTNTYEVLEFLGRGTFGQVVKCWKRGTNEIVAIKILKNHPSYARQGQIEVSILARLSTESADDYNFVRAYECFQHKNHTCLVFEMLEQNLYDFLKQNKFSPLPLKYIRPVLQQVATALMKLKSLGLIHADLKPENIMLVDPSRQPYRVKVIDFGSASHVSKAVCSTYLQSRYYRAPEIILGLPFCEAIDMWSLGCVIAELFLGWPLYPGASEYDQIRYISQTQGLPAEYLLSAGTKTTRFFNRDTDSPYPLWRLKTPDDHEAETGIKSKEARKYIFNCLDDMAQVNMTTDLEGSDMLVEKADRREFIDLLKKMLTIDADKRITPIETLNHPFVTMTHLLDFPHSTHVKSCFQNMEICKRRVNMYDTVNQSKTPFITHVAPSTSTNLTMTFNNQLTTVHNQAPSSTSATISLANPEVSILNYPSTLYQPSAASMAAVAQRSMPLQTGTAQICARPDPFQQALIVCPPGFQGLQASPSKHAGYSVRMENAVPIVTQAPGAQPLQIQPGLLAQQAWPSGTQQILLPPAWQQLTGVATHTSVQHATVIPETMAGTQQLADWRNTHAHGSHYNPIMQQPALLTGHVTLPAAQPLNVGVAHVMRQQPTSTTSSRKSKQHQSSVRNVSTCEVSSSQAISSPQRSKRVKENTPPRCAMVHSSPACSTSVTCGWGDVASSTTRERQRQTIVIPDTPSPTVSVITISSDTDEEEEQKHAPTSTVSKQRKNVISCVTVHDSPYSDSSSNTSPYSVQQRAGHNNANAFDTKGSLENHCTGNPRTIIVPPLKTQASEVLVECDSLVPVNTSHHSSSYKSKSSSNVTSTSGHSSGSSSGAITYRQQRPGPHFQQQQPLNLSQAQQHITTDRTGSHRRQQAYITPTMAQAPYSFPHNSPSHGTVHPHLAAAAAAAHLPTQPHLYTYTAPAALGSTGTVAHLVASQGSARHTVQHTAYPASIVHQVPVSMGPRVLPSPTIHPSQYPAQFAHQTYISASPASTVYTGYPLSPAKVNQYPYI

**Q.** For `O=C(NS(=O)(=O)c1ccc(NCC2CCOCC2)c([N+](=O)[O-])c1)c1ccc(N2CCN(Cc3ccc(C(F)(F)F)cc3-c3ccc(Cl)cc3)CC2)cc1Oc1cnc2[nH]ccc2c1` [A-1210227], which residual activity [1] is on record?
**A.** 90%

**Q.** And the % Inhibition of Control Specific Binding (Mean n=2) [2]?
**A.** -2.1%

**Q.** What about the residual activity [3] of the same compound?
**A.** 99%

**Q.** What about the residual activity [4] of the same compound?
**A.** 100%

**Q.** And the residual activity [5]?
**A.** 93%

**Q.** What about the % Inhibition of Control Specific Binding (Mean n=2) [6] of the same compound?
**A.** 3.5%

**Q.** And the residual activity [7]?
**A.** 100%

**Q.** And the residual activity [8]?
**A.** 75%

**Q.** What about the residual activity [9] of the same compound?
**A.** 100%

**Q.** And the residual activity [10]?
**A.** 88%

**Q.** And the residual activity [11]?
**A.** 91%

**Q.** What about the residual activity [12] of the same compound?
**A.** 96%

**Q.** And the residual activity [13]?
**A.** 83%

**Q.** And the residual activity [14]?
**A.** 98%

**Q.** What about the residual activity [15] of the same compound?
**A.** 100%

**Q.** What about the residual activity [16] of the same compound?
**A.** 100%

**Q.** What about the residual activity [17] of the same compound?
**A.** 96%

**Q.** And the residual activity [18]?
**A.** 100%

**Q.** And the residual activity [19]?
**A.** 69%

**Q.** And the residual activity [20]?
**A.** 100%

**Q.** What about the residual activity [21] of the same compound?
**A.** 100%

**Q.** And the residual activity [22]?
**A.** 100%

**Q.** And the residual activity [23]?
**A.** 100%

**Q.** And the residual activity [24]?
**A.** 100%

**Q.** What about the residual activity [25] of the same compound?
**A.** 80%

**Q.** And the residual activity [26]?
**A.** 100%

**Q.** What about the residual activity [27] of the same compound?
**A.** 100%

**Q.** And the residual activity [28]?
**A.** 100%

**Q.** What about the residual activity [29] of the same compound?
**A.** 100%

**Q.** And the residual activity [30]?
**A.** 66%

**Q.** And the residual activity [31]?
**A.** 98%

**Q.** What about the residual activity [32] of the same compound?
**A.** 89%

**Q.** What about the % Inhibition of Control Specific Binding (Mean n=2) [33] of the same compound?
**A.** 3.1%

**Q.** What about the residual activity [34] of the same compound?
**A.** 100%

**Q.** And the residual activity [35]?
**A.** 0%

**Q.** And the residual activity [36]?
**A.** 83%

**Q.** And the inhibition [37]?
**A.** 12.6%

**Q.** What about the residual activity [38] of the same compound?
**A.** 77%

**Q.** And the residual activity [39]?
**A.** 100%

**Q.** What about the residual activity [40] of the same compound?
**A.** 90%

**Q.** What about the residual activity [41] of the same compound?
**A.** 82%

**Q.** And the residual activity [42]?
**A.** 100%

**Q.** And the residual activity [43]?
**A.** 65%

**Q.** And the residual activity [44]?
**A.** 91%

**Q.** With `CO[C@H]1CC[C@H](CNc2ccc(S(=O)(=O)NC(=O)c3ccc(N4CCN(CC5=C(c6ccc(Cl)cc6)CC(C)(C)CC5)CC4)cc3Oc3cnc4[nH]ccc4c3)cc2[N+](=O)[O-])CC1` [A-1211212] as the compound, how does the residual activity [1] read?
**A.** 90%

**Q.** And the % Inhibition of Control Specific Binding (Mean n=2) [2]?
**A.** -15.7%

**Q.** What about the residual activity [3] of the same compound?
**A.** 100%

**Q.** What about the residual activity [4] of the same compound?
**A.** 90%

**Q.** And the residual activity [5]?
**A.** 84%

**Q.** And the % Inhibition of Control Specific Binding (Mean n=2) [6]?
**A.** 4.2%

**Q.** What about the residual activity [7] of the same compound?
**A.** 100%

**Q.** What about the residual activity [8] of the same compound?
**A.** 76%

**Q.** And the residual activity [9]?
**A.** 100%

**Q.** What about the residual activity [10] of the same compound?
**A.** 65%

**Q.** And the residual activity [11]?
**A.** 89%

**Q.** What about the residual activity [12] of the same compound?
**A.** 100%

**Q.** What about the residual activity [13] of the same compound?
**A.** 73%

**Q.** What about the residual activity [14] of the same compound?
**A.** 4.4%

**Q.** And the residual activity [15]?
**A.** 100%

**Q.** What about the residual activity [16] of the same compound?
**A.** 100%

**Q.** What about the residual activity [17] of the same compound?
**A.** 85%

**Q.** What about the residual activity [18] of the same compound?
**A.** 100%

**Q.** What about the residual activity [19] of the same compound?
**A.** 77%

**Q.** What about the residual activity [20] of the same compound?
**A.** 100%

**Q.** What about the residual activity [21] of the same compound?
**A.** 90%

**Q.** And the residual activity [22]?
**A.** 73%

**Q.** And the residual activity [23]?
**A.** 96%

**Q.** What about the residual activity [24] of the same compound?
**A.** 94%

**Q.** And the residual activity [25]?
**A.** 71%

**Q.** What about the residual activity [26] of the same compound?
**A.** 85%

**Q.** What about the residual activity [27] of the same compound?
**A.** 67%

**Q.** What about the residual activity [28] of the same compound?
**A.** 100%

**Q.** What about the residual activity [29] of the same compound?
**A.** 100%

**Q.** And the residual activity [30]?
**A.** 88%

**Q.** And the residual activity [31]?
**A.** 93%

**Q.** And the residual activity [32]?
**A.** 91%

**Q.** What about the % Inhibition of Control Specific Binding (Mean n=2) [33] of the same compound?
**A.** 5.9%

**Q.** And the residual activity [34]?
**A.** 88%

**Q.** And the residual activity [35]?
**A.** 81%

**Q.** What about the residual activity [36] of the same compound?
**A.** 76%

**Q.** What about the inhibition [37] of the same compound?
**A.** 3.65%

**Q.** And the residual activity [38]?
**A.** 81%

**Q.** And the residual activity [39]?
**A.** 100%

**Q.** What about the residual activity [40] of the same compound?
**A.** 73%

**Q.** What about the residual activity [41] of the same compound?
**A.** 78%

**Q.** What about the residual activity [42] of the same compound?
**A.** 100%

**Q.** What about the residual activity [43] of the same compound?
**A.** 100%

**Q.** And the residual activity [44]?
**A.** 68%

— ChEMBL document CHEMBL4507310, “Data for DCP probe A-1211212” (2021)
